Experimental data: patent US20260028354A1, “TETRAHYDRONAPHTHALENE DERIVATIVES AS ESTROGEN RECEPTOR DEGRADERS” (REGENT OF THE UNIVERSITY OF MICHIGAN, priority 2022, published 2026)
pIC50: −log10 of the molar value.

What was measured:
ER = ER (Homo sapiens (Human), UniProt P03372); assay: In-cell western blot analysis of ER for "B" compounds; format: cell-based; details: 16 hours, read-out: ICW DC50
Experimental: R^T 2h, gentle shaking. Negative control: cells plus secondary antibodies (no primary antibodies); e, wash x 4 with PBS+0.05-0.1% Tween 20, gentel shaking; f, anti-rabbit-680 and anti-mouse-800 (both 1:1000 in LiCor block+0.05% Tween20, R^T 1h, gentle shaking, no light. LI-COR: 0.2% to reduce background; g, wash×4 with PBS+0.05% Tween 20, gental shaking; h, add 100 μL or 25 μL of PBS to each well and read on CLX plate reader. The relative ER percentage in treated cells were obtained by comparing the values of treated wells to those in untreated and DMSO-treated wells as 100%.

[1] = Cell growth assay (WST-8) for "B" compounds; format: cell-based; details: T47D, T47D cell line; read-out: Cell growth Inhibition in T47D cell line IC50
Method in brief: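 Cells seeded at 1500/well overnight, then exposed to compounds for 4 days. 10% WST-8 added for 2.5 h at 37 °C and absorbance read at 450 nm. Growth given as absorbance relative to vehicle control, from three repeats.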

Sequence of ER (P03372 whole entry): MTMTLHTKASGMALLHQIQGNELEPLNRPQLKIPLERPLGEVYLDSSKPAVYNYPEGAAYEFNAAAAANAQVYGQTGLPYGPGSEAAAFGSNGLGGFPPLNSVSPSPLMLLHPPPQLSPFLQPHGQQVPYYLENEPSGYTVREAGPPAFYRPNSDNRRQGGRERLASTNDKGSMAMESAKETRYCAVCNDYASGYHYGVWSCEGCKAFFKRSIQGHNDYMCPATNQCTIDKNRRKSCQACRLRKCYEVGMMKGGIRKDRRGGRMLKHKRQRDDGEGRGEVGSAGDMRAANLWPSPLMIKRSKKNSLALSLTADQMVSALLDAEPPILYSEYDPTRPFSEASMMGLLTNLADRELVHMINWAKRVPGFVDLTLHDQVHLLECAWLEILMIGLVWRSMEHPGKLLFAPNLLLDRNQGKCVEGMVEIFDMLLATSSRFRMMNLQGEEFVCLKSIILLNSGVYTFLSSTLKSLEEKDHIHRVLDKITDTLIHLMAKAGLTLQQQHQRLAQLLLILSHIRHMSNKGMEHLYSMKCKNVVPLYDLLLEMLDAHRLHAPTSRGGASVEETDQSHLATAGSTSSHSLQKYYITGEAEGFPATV

SMILES	DC50 (ER) [nM]	pIC50 [1]
O=C1CCC(N2Cc3cc4c(cc3C2=O)OC[C@@H]2CN(C(=O)CN3CCN(c5ccc([C@@H]6c7ccc(O)cc7CC[C@@H]6c6ccccc6)cc5)CC3)CCN42)C(=O)N1 (stereo partly drawn) [Compound B144, 3-((S)-3-(2-(4-(4-((1R,2S)-6-hydroxy-2-phenyl-1,2,3,4-tetrahydronaphthalen-1-yl)phenyl)piperazin-1-yl)acetyl)-8-oxo-1,2,3,4,4a,5,8,10-octahydro-9H-pyrazino[1′,2′:4,5][1,4]oxazino[2,3-f]isoindol-9-yl)piperidine-2,6-dione]	10 to 100	> 9.00
O=C1CCC(N2Cc3cc4c(cc3C2=O)OC[C@@H]2CN(CC(=O)N3CCN(c5ccc([C@@H]6c7ccc(O)cc7CC[C@@H]6c6ccccc6)cc5)CC3)CCN42)C(=O)N1 (stereo partly drawn) [Compound B145, 3-((S)-3-(2-(4-(4-((1R,2S)-6-hydroxy-2-phenyl-1,2,3,4-tetrahydronaphthalen-1-yl)phenyl)piperazin-1-yl)-2-oxoethyl)-8-oxo-1,2,3,4,4a,5,8,10-octahydro-9H-pyrazino[1′,2′:4,5][1,4]oxazino[2,3-f]isoindol-9-yl)piperidine-2,6-dione]	10 to 100	> 9.00
O=C1CCC(N2Cc3cc4c(cc3C2=O)OC[C@@H]2CN(C(=O)CN3CCC5(CC3)CCN(c3ccc([C@@H]6c7ccc(O)cc7CC[C@@H]6c6ccccc6)cc3)CC5)CCN42)C(=O)N1 (stereo partly drawn) [Compound B146, 3-((S)-3-(2-(9-(4-((1R,2S)-6-hydroxy-2-phenyl-1,2,3,4-tetrahydronaphthalen-1-yl)phenyl)-3,9-diazaspiro[5.5]undecan-3-yl)acetyl)-8-oxo-1,2,3,4,4a,5,8,10-octahydro-9H-pyrazino[1′,2′:4,5][1,4]oxazino[2,3-f]isoindol-9-yl)piperidine-2,6-dione]	< 10	> 9.00
O=C1CCC(N2Cc3cc4c(cc3C2=O)OC[C@@H]2CN(CC(=O)N3CCC5(CC3)CCN(c3ccc([C@@H]6c7ccc(O)cc7CC[C@@H]6c6ccccc6)cc3)CC5)CCN42)C(=O)N1 (stereo partly drawn) [Compound B147, 3-((S)-3-(2-(9-(4-((1R,2S)-6-hydroxy-2-phenyl-1,2,3,4-tetrahydronaphthalen-1-yl)phenyl)-3,9-diazaspiro[5.5]undecan-3-yl)-2-oxoethyl)-8-oxo-1,2,3,4,4a,5,8,10-octahydro-9H-pyrazino[1′,2′:4,5][1,4]oxazino[2,3-f]isoindol-9-yl)piperidine-2,6-dione]	10 to 100	8.00 to 9.00
O=C1CCC(N2Cc3cc4c(cc3C2=O)OC[C@@H]2CN(CC(=O)N3CCC5(CC3)CCN(c3ccc([C@@H]6c7ccc(O)cc7CC[C@@H]6c6ccccc6)cn3)CC5)CCN42)C(=O)N1 (stereo partly drawn) [Compound B148, 3-((S)-3-(2-(9-(5-(cis-6-hydroxy-2-phenyl-1,2,3,4-tetrahydronaphthalen-1-yl)pyridin-2-yl)-3,9-diazaspiro[5.5]undecan-3-yl)-2-oxoethyl)-8-oxo-1,2,3,4,4a,5,8,10-octahydro-9H-pyrazino[1′,2′: 4,5][1,4]oxazino[2,3-f]isoindol-9-yl)piperidine-2,6-dione]	10 to 100	8.00 to 9.00
O=C1CCC(N2Cc3cc4c(cc3C2=O)OC[C@@H]2CN(CC(=O)N3CC(Oc5ccc([C@@H]6c7ccc(O)cc7CC[C@@H]6c6ccccc6)cc5)C3)CCN42)C(=O)N1 (stereo partly drawn) [Compound B150, 3-((S)-3-(2-(3-(4-((1R,2S)-6-hydroxy-2-phenyl-1,2,3,4-tetrahydronaphthalen-1-yl)phenoxy)azetidin-1-yl)-2-oxoethyl)-8-oxo-1,2,3,4,4a,5,8,10-octahydro-9H-pyrazino[1′,2′:4,5][1,4]oxazino[2,3-f]isoindol-9-yl)piperidine-2,6-dione]	< 10	> 9.00

Second part, led by results:

DC50 (ER) [nM]	SMILES	pIC50 [1]
< 10	O=C1CCC(N2Cc3cc4c(cc3C2=O)OC[C@@H]2CN(C(=O)CN3CC(Oc5ccc([C@@H]6c7ccc(O)cc7CC[C@@H]6c6ccccc6)cc5)C3)CCN42)C(=O)N1 (stereo partly drawn) [Compound B151, 3-((S)-3-(2-(3-(4-((1R,2S)-6-hydroxy-2-phenyl-1,2,3,4-tetrahydronaphthalen-1-yl)phenoxy)azetidin-1-yl)acetyl)-8-oxo-1,2,3,4,4a,5,8,10-octahydro-9H-pyrazino[1′,2′:4,5][1,4]oxazino[2,3-f]isoindol-9-yl)piperidine-2,6-dione]	> 9.00
< 10	O=C1CCC(N2Cc3cc4c(cc3C2=O)OC[C@@H]2CN(CC(=O)N3CCC5(C3)CN(c3ccc([C@@H]6c7ccc(O)cc7CC[C@@H]6c6ccccc6)cc3)C5)CCN42)C(=O)N1 (stereo partly drawn) [Compound B152, 3-((S)-3-(2-(2-(4-((1R,2S)-6-hydroxy-2-phenyl-1,2,3,4-tetrahydronaphthalen-1-yl)phenyl)-2,6-diazaspiro[3.4]octan-6-yl)-2-oxoethyl)-8-oxo-1,2,3,4,4a,5,8,10-octahydro-9H-pyrazino[1′,2′:4,5][1,4]oxazino[2,3-f]isoindol-9-yl)piperidine-2,6-dione]	> 9.00
< 10	O=C1CCC(N2Cc3cc4c(cc3C2=O)OC[C@@H]2CN(CC(=O)N3CC5(CC(Nc6ccc([C@@H]7c8ccc(O)cc8CC[C@@H]7c7ccccc7)cc6)C5)C3)CCN42)C(=O)N1 (stereo partly drawn) [Compound B153, 3-((S)-3-(2-(6-((4-((1R,2S)-6-hydroxy-2-phenyl-1,2,3,4-tetrahydronaphthalen-1-yl)phenyl)amino)-2-azaspiro[3.3]heptan-2-yl)-2-oxoethyl)-8-oxo-1,2,3,4,4a,5,8,10-octahydro-9H-pyrazino[1′,2′:4,5][1,4]oxazino[2,3-f]isoindol-9-yl)piperidine-2,6-dione]	> 9.00
< 10	O=C1CCC(N2Cc3cc4c(cc3C2=O)OC[C@@H]2CN(C(=O)CN3CCC5(C3)CN(c3ccc([C@@H]6c7ccc(O)cc7CC[C@@H]6c6ccccc6)cc3)C5)CCN42)C(=O)N1 (stereo partly drawn) [Compound B154, 3-((S)-3-(2-(2-(4-((1R,2S)-6-hydroxy-2-phenyl-1,2,3,4-tetrahydronaphthalen-1-yl)phenyl)-2,6-diazaspiro[3.4]octan-6-yl)acetyl)-8-oxo-1,2,3,4,4a,5,8,10-octahydro-9H-pyrazino[1′,2′:4,5][1,4]oxazino[2,3-f]isoindol-9-yl)piperidine-2,6-dione]	> 9.00
< 10	O=C1CCC(N2Cc3cc4c(cc3C2=O)OC[C@@H]2CN(C(=O)CN3CC5(CC(Nc6ccc([C@@H]7c8ccc(O)cc8CC[C@@H]7c7ccccc7)cc6)C5)C3)CCN42)C(=O)N1 (stereo partly drawn) [Compound B155, 3-((S)-3-(2-(6-((4-((1R,2S)-6-hydroxy-2-phenyl-1,2,3,4-tetrahydronaphthalen-1-yl)phenyl)amino)-2-azaspiro[3.3]heptan-2-yl)acetyl)-8-oxo-1,2,3,4,4a,5,8,10-octahydro-9H-pyrazino[1′,2′:4,5][1,4]oxazino[2,3-f]isoindol-9-yl)piperidine-2,6-dione]	> 9.00
10 to 100	O=C1CCC(N2Cc3cc4c(cc3C2=O)OC[C@@H]2CN(C(=O)CN3C[C@@H]5CN(c6ccc([C@@H]7c8ccc(O)cc8CC[C@@H]7c7ccccc7)cc6)C[C@@H]5C3)CCN42)C(=O)N1 (stereo partly drawn) [Compound B157, 3-((S)-3-(2-((3aR,6aS)-5-(4-((1R,2S)-6-hydroxy-2-phenyl-1,2,3,4-tetrahydronaphthalen-1-yl)phenyl)hexahydropyrrolo[3,4-c]pyrrol-2(1H)-yl)acetyl)-8-oxo-1,2,3,4,4a,5,8,10-octahydro-9H-pyrazino[1′,2′:4,5][1,4]oxazino[2,3-f]isoindol-9-yl)piperidine-2,6-dione]	> 9.00
